According to ChEMBL document CHEMBL1201862, “PubChem BioAssay data set” (2004):
Active and inactive are the calls of the source.

How the values were obtained:
Cytochrome P450 2C9 = Cytochrome P450 2C9 (Homo sapiens, UniProt P11712)
Cytochrome P450 2C19 = Cytochrome P450 2C19 (Homo sapiens, UniProt P33261); assay: Cytochrome panel assay with activity outcomes. Panel member name: p450-cyp2c19 Compounds with AC50 equal or less than 10 uM are considered active; type: functional; conditions: read-out: AC50
[1] = target: T1, Heat shock factor protein 1 (Mus musculus, UniProt P38532); assay: enhancement of HSF1-driven luciferase signal – cell-based, NIH3T3, luminescence, dose retest, confirmation (AID 435004); type: functional;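 further: stress induced by proteasome inhibitor MG132 added 30 min after compound; luciferase reporter driven by HSF1 response element in NIH3T3 cells; actives raise luminescence as potentiators of the MG132 stress response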
T1 sequence (P38532 whole entry): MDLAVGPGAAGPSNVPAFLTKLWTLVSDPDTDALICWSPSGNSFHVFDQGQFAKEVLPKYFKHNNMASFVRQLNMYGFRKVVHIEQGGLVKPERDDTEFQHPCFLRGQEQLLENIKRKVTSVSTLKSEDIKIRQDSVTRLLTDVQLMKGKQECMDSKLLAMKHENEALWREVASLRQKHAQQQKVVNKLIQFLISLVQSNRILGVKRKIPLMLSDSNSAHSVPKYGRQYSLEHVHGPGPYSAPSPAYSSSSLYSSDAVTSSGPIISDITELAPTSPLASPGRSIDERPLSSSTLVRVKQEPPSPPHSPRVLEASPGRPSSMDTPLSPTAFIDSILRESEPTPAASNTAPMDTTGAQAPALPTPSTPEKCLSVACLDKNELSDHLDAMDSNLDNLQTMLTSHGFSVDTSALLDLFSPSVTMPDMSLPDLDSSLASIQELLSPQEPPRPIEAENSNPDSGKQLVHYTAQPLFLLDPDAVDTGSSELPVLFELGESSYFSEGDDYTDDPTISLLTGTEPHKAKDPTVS

Cytochrome P450 3A4 = Cytochrome P450 3A4 (Homo sapiens, UniProt P08684);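 further: CYP3A4 tested as one member of a cytochrome P450 panel screen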
Cytochrome P450 2D6 = Cytochrome P450 2D6 (Homo sapiens, UniProt P10635);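 further: CYP2D6 member of a cytochrome P450 panel assay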
Cytochrome P450 1A2 = target: T2, Cytochrome P450 1A2 (Homo sapiens, UniProt P05177);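 further: PubChem cytochrome P450 panel assay, CYP1A2 panel member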
T2 sequence (P05177 whole entry): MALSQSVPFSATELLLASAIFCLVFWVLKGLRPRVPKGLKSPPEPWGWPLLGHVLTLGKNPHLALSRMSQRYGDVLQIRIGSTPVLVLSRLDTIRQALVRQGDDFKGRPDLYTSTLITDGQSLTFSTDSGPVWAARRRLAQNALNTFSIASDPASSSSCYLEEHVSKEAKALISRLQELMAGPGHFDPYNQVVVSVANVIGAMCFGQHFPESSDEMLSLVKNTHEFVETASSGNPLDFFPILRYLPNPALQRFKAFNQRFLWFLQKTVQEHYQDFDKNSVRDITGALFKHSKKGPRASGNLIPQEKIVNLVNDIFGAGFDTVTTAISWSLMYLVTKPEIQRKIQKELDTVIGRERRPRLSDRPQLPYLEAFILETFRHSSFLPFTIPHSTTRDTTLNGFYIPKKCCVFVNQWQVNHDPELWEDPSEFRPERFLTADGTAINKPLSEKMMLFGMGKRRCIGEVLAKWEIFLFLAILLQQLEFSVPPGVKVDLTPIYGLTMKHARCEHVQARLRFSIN

H4 = assay: Luminescence Cell-Based Dose Response HTS to Identify Activators of 5'UTR Stem-Loop Driven Prion Protein mRNA Translation in H4 Neuroglioblastoma Cells. [Related pubchem assays: 1829 (Project Summary), 1814 (Primary HTS)]; type: functional; conditions: Homo sapiens

Sequence of Cytochrome P450 2C9 (P11712 whole entry): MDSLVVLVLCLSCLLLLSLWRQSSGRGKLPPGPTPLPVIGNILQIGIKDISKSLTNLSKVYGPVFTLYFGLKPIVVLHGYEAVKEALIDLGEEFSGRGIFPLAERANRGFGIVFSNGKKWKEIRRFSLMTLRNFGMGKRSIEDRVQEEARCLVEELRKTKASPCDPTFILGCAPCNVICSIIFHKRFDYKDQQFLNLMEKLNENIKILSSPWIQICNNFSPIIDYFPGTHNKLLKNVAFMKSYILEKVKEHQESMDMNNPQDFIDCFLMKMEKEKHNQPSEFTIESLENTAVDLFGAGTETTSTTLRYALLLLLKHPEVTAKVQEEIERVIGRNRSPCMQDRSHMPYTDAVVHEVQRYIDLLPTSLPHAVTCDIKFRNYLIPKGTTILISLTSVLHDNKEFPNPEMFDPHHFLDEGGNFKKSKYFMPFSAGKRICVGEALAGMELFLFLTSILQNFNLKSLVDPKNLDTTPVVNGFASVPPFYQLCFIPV
Sequence of Cytochrome P450 3A4 (P08684 whole entry): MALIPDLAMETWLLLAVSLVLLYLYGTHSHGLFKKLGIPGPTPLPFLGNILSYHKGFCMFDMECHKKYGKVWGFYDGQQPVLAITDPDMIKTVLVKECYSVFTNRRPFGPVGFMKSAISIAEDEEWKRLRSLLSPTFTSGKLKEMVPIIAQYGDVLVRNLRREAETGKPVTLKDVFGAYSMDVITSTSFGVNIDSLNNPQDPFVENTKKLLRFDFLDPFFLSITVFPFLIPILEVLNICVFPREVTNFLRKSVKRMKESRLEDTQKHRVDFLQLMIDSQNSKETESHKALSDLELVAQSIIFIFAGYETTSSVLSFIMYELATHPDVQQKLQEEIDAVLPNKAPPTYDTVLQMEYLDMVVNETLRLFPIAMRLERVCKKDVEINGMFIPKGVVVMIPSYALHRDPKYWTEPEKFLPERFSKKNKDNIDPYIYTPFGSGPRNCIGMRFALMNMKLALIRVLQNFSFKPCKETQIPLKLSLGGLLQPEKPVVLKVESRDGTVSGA
Sequence of Cytochrome P450 2C19 (P33261 whole entry): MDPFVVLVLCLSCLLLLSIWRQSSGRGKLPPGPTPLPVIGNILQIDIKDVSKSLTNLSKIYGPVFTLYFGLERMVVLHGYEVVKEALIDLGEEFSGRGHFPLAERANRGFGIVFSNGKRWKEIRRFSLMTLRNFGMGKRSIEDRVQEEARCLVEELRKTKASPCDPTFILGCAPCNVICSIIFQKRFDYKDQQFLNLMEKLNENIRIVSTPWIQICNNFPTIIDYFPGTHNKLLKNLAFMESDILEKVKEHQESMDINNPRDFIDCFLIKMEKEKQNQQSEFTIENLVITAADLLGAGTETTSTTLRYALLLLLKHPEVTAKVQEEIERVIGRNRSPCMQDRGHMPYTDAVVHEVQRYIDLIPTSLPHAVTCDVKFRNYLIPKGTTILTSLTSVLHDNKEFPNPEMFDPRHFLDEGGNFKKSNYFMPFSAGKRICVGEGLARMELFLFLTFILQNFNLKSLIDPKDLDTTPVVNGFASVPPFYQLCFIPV
Sequence of Cytochrome P450 2D6 (P10635 whole entry): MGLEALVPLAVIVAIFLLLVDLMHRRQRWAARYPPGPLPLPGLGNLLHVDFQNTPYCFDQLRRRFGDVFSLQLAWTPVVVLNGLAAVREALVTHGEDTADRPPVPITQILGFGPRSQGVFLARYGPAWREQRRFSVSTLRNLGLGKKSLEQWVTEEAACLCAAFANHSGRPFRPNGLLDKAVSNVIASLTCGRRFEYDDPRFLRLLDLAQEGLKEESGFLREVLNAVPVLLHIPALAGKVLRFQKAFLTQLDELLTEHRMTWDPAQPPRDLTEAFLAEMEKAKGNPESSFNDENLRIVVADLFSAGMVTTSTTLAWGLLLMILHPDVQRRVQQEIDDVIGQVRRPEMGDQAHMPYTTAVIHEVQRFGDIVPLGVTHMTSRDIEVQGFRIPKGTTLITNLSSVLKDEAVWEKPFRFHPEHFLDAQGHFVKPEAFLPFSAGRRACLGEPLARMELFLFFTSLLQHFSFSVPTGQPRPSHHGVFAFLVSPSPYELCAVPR

With `CCCCN1C(=O)C(NC(=O)CC(C)C)(C(F)(F)F)C2=C1CC(C)(C)CC2=O` (stereo unspecified) the AC50 (Cytochrome P450 2C9) was 5.62 µM (inconclusive) and the AC50 (Cytochrome P450 2C19) was 25.1 µM (inconclusive).
In the case of `O=c1ccc2ccc(Oc3ccc([N+](=O)[O-])cc3[N+](=O)[O-])cc2o1`, the EC50 [1] is reported as 13.5 µM (active).
In the case of `Fc1ccc(-c2csc(N3CCC(c4ccccc4)C3)n2)cc1` (stereo unspecified), the AC50 (Cytochrome P450 3A4) is reported as 28.2 µM (inconclusive).
With `Cc1ccc(NC(=S)N=Nc2c(O)n(C)c3ccc(S(=O)(=O)N4CCOCC4)cc23)cc1` the EC50 [1] was 6.25 µM (active).
With `COc1cccc(CN2CC(C(=O)NCc3ccc(C)o3)CCC2=O)c1` (stereo unspecified) the EC50 [1] was > 260 µM (inactive).
For `Cc1ccc(CNC(=O)Cn2c(=O)oc3ccccc32)o1`, the AC50 (Cytochrome P450 2D6) was 20 µM (inconclusive).
With `CC12COC3(C(=O)Nc4nccs4)CC1CCC32C` (stereo unspecified) the AC50 (Cytochrome P450 2C9) was 0.01 µM (inconclusive) and the AC50 (Cytochrome P450 1A2) was 12.6 µM (inconclusive).
With `COc1ccc(C(=O)NCCCN2CCOCC2)cc1OC` the AC50 (Cytochrome P450 2D6) was 2 µM (inconclusive) and the AC50 (Cytochrome P450 2C9) was 14.1 µM (inconclusive).
For `COc1ccc(-c2cc(C(=O)Nc3cccc(Cl)c3)no2)cc1`, the EC50 (H4) was 0.184 µM (active).
For `CCOc1cc(NC(=O)c2ccccc2C)c(OCC)cc1N=C(S)NCC1CCCO1` (stereo unspecified), the AC50 (Cytochrome P450 2C19) was 11.2 µM (inconclusive).
For `CCOc1ccc(-c2nnc(-c3ccncc3)o2)cc1`, the AC50 (Cytochrome P450 3A4) was 1.58 µM (inconclusive).
For `Cc1cccc(CN2CCC(C(=O)Nc3cccc(-c4cscn4)c3)CC2)n1`, the EC50 [1] was > 260 µM (inactive).
For `Cc1cc(C)c(C(N)=O)c(SCC(=O)c2ccc(Cl)cc2)n1`, the AC50 (Cytochrome P450 1A2) was 15.8 µM (inconclusive) and the AC50 (Cytochrome P450 3A4) was 31.6 µM (inconclusive).
`CC(=O)NCCn1ccc2ccccc21` was tested, and the EC50 [1] was > 260 µM (inactive).
For `CCNc1ncc2nc(-c3cccc(C#N)c3)c(=O)n(CCC#N)c2n1`, the AC50 (Cytochrome P450 1A2) was 0.631 µM (inconclusive) and the AC50 (Cytochrome P450 3A4) was 7.94 µM (inconclusive).
`CCNc1ncc2nc(-c3cc(F)cc(F)c3)c(=O)n(-c3ccc(OC)cc3)c2n1` was tested, and the AC50 (Cytochrome P450 2D6) was 0.158 µM (inconclusive).
For `CC(C)(C)CC(C)(C)c1ccc(O)c(C[N+](C)(C)[O-])c1`, the AC50 (Cytochrome P450 2D6) was 7.94 µM (inconclusive) and the AC50 (Cytochrome P450 3A4) was 5.01 µM (inconclusive).
In the case of `CCOC(=O)c1c(C)n(C)c2ccc(OC)c(NC(=O)CN3CCCCC3)c12`, the AC50 (Cytochrome P450 2D6) is reported as 20 µM (inconclusive), the AC50 (Cytochrome P450 2C19) is reported as 11.2 µM (inconclusive) and the AC50 (Cytochrome P450 3A4) is reported as 14.1 µM (inconclusive).
`CCCCN(C(S)=Nc1ccccc1)C1CCS(=O)(=O)C1` (stereo unspecified) was tested, and the AC50 (Cytochrome P450 3A4) was 22.4 µM (inconclusive).
For `Cc1onc(-c2ccccc2)c1C(=O)NC(CC(=O)O)c1ccc(OC(C)C)cc1` (stereo unspecified), the AC50 (Cytochrome P450 2C9) was 15.8 µM (inconclusive), the AC50 (Cytochrome P450 2C19) was 7.08 µM (inconclusive) and the AC50 (Cytochrome P450 3A4) was 28.2 µM (inconclusive).
For `Cc1ccc(NC(=S)N2CCN(C3CCCCC3)CC2)cc1`, the AC50 (Cytochrome P450 3A4) was 10 µM (inconclusive).
`O=C(CN(Cc1ccccc1)S(=O)(=O)c1ccc2c(c1)OCCO2)N/N=C/c1ccc(F)cc1` was tested, and the AC50 (Cytochrome P450 2D6) was 15.8 µM (inconclusive) and the AC50 (Cytochrome P450 1A2) was 11.2 µM (inconclusive).
In the case of `COc1ccc(OCCn2c(C)c(/C=N/n3cnnc3)c3ccccc32)cc1`, the AC50 (Cytochrome P450 2D6) is reported as 3.98 µM (inconclusive).
In the case of `C/C(=N/NC(=O)c1cccs1)c1ccc(NC(=O)COc2ccc(Cl)cc2Cl)cc1`, the AC50 (Cytochrome P450 2C9) is reported as 4.47 µM (inconclusive) and the AC50 (Cytochrome P450 1A2) is reported as 12.6 µM (inconclusive).
`Cc1ccc(C)c(S(=O)(=O)c2c(N)n(/N=C/c3ccco3)c3nc4ccccc4nc23)c1` was tested, and the EC50 [1] was > 260 µM (inactive).
`C(=N\n1cnnc1)/c1cccn1-c1ccccc1` was tested, and the AC50 (Cytochrome P450 2C19) was 0.0251 µM (inconclusive) and the AC50 (Cytochrome P450 3A4) was 39.8 µM (inconclusive).
`COc1ccccc1CNc1ncnc2ccc(-c3ccccc3OC)cc12` was tested, and the AC50 (Cytochrome P450 2D6) was 12.6 µM (inconclusive).
`Nc1ccccc1SCc1csc(-c2ccc(Cl)cc2)n1` was tested, and the AC50 (Cytochrome P450 2D6) was 3.16 µM (inconclusive) and the AC50 (Cytochrome P450 2C9) was 5.01 µM (inconclusive).
In the case of `COc1ccc(-c2coc3cc(OC)cc(O)c3c2=O)cc1` [4',7-DIMETHOXY-5-HYDROXYGENISTEIN], the AC50 (Cytochrome P450 2C9) is reported as 2.82 µM (inconclusive) and the AC50 (Cytochrome P450 2C19) is reported as 25.1 µM (inconclusive).
With `CN(C(=O)Cc1ccc(Cl)c(Cl)c1)[C@H](CN1CCCC1)c1ccccc1` [ICI-199,441] the AC50 (Cytochrome P450 2D6) was 0.0126 µM (active) and the AC50 (Cytochrome P450 1A2) was 31.6 µM (inconclusive).
